Here are results for 21 compounds from patent US20050106745A1, “Combination of solubility and membrane permeability measurement methods for profiling of chemical compounds” (AGY Therapeutics, Inc., priority 2003, published 2005).

≈ marks a conversion by molar mass, not a printed value. Counter-ions that a name gives are not always drawn. Like-named read-outs stand apart in the source and are kept apart here. A value given as a limit tells only on which side of the number the result lay.

The nature of one series: physchem. As to conditions: for solubility kinetic at 90 min / solubility at 90 min: kinetic from dmso stock. The procedure: The aqueous and aqueous/methanol solutions were shaken for 90 minutes at room temperature. Using a 96-tip Biomek FX liquid handling system (Beckman Coulter, Fullterton, Calif.), the solutions were transferred to a MultiScreen-Solubility 96-well filterplate (MSSLBPC10, Millipore, Mass.), vacuum filtered, and collected into a clean 96-deepwell plate. […] The sample wells were diluted in the UV/Vis plate with pre-dispensed methanol (20% v/v) for spectroscopic consistency. The remaining portion of the filtrate was sealed and kept in a cool, dark place to be used within 2 hours in the permeability assay. […] The absorption spectra were then corrected for variance in path length by the PathCheck™ algorithm in the SoftMaxPro® software. Next, the optical density (OD) at an appropriate wavelength (λ) was determined for each compound by the analysis algorithm as follows: the UV-Visible spectra were analyzed with a program written in HPBASIC for Windows (TransEra Corporation, Orem, Utah). Briefly, from the spectrum of each well a heuristically matched, scaled and appropriately shifted baseline was subtracted. The locations (λ) and the values of all the peaks [OD(λ)] were then determined. […] In addition, built in user interface tools offered a convenient way to review and manually reassign the λ values to address special cases. When no peaks were found in the spectra, the OD values at 265 nm were used.
For the solubility calculation, a consensus λ was determined for the sample and reference spectra and the corresponding OD values were used in equation (1). The concentrations of the compounds in solution were determined by the following formula: [formula] where OD(λ)sample and OD(λ)Reference are the optical densities at a given wavelength for each compound and [Reference] is the same compound at a known reference concentration.

For series [1] the following is noted: rat model, literature (Kelder et al. 1999); cited from earlier work.
The nature of series [2]: BBB-PAMPA effective permeability (Sol-PAMPA). To be noted: for Papp at 16 h: PAMPA; for AGY Ranking (CNS+/CNS−): ranking from BBB-Sol-PAMPA Pe; for Pe × 10^−6 (effective BBB permeability): BBB-PAMPA, pH 7.4 to 7.4, input at solubility limit, 16 hours, n=7. (The PAMPA barrier holds no transporters, so it reflects passive diffusion.)
For series [3] the following is noted: cited from earlier work.
For series [4] the following is noted: PAMPA.
The conditions of series [5]: cited from earlier work. The source holds these as a separate data set.
The nature of a further series: in vitro. As to conditions: PAMPA, pH 7.4.

The solubility (kinetic) is solubility judged after dilution from a stock solution rather than from solid. As usually defined, the Papp is the rate of passage across a membrane or cell layer, normalised by area and donor concentration. The term solubility denotes how much of the substance goes into solution per volume.

For the compound `CN(C)CCC=C1c2ccccc2CCc2ccccc21` [Amitriptyline HCl, amitriptyline], the solubility (kinetic) at 90 min in the series “physchem” (pH 7.4, aqueous buffer) worked out at 163 µM. In series [1], the “[Brain]/[Blood]” value is listed as 9.55. For the same compound, the Papp at 16 h in series [2] (pH 7.4) came to 12.8 ×10⁻⁶ cm/s. For the same compound, the “AGY Ranking (CNS+/CNS−)” value in series [2] is given as “+ (CNS+ compounds have a Pe>2.0×10^−6 cm/sec)”.

Turning to `Cn1c(=O)c2c(ncn2C)n(C)c1=O` [Caffeine, caffeine], the “AGY Ranking (CNS+/CNS−)” value in series [2] is listed as “− (CNS- compounds have a Pe<2.0×10^−6 cm/sec)”.

As to `NC(=O)N1c2ccccc2C=Cc2ccccc21` [Carbamazepine, carbamazepine], the solubility (kinetic) at 90 min in “physchem” (pH 7.4, aqueous buffer) was 253 µM (≈ 59.8 µg/mL). Besides, the “[Brain]/[Blood]” value in series [1] was 1.00. The same compound came in with a Papp at 16 h in series [2] (pH 7.4) of 12.9 ×10⁻⁶ cm/s. In addition, the “AGY Ranking (CNS+/CNS−)” value in series [2] is “+ (CNS+ compounds have a Pe>2.0×10^−6 cm/sec)”.

`Clc1cccc(Cl)c1N=C1NCCN1` [Clonidine, clonidine] registered a solubility (kinetic) at 90 min in “physchem” (pH 7.4, aqueous buffer) of 248 µM (≈ 57.1 µg/mL). Moreover, the “[Brain]/[Blood]” value in series [1] was 1.29. In series [2] (pH 7.4), this compound yielded a Papp at 16 h of 2.01 ×10⁻⁶ cm/s. Besides, the “AGY Ranking (CNS+/CNS−)” value in series [2] was “+ (CNS+ compounds have a Pe>2.0×10^−6 cm/sec)”.

On to `CNCCCN1c2ccccc2CCc2ccccc21` [Desipramine, desipramine], for which the solubility at 90 min was over 350 µM in “physchem” (pH 3, aqueous buffer); over 350 µM in the series “physchem” (pH 5, aqueous buffer); over 350 µM in “physchem” (pH 7.4, aqueous buffer); over 350 µM in “physchem” (pH 9, aqueous buffer). The compound also displayed a kinetic solubility at 90 min in the series “physchem” (pH 7.4, aqueous buffer) of 274 µM (≈ 73 µg/mL). Further, the “Literature (solubility)” value in series [3] (pH 7.4) is 155 µM. In addition, the “[Brain]/[Blood]” value in series [1] is given as 10.00. This compound also showed a Papp at 16 h in series [2] (pH 7.4) of 17.9 ×10⁻⁶ cm/s. For the same compound, the “AGY Ranking (CNS+/CNS−)” value in series [2] was “+ (CNS+ compounds have a Pe>2.0×10^−6 cm/sec)”.

With `CN1CC[C@@]23CCCC[C@@H]2[C@@H]1Cc1ccc(O)cc13` [Dextrophan, dextrophan], the “pH 7.4 Solubility” value in the series “physchem” (pH 7.4, Table 2 test set, n=7) is 300 μM. Besides, the “AGY Ranking (CNS+/CNS−)” value in series [4] is on record as “+ (key: CNS+ compounds have a Pe>2.0×10^−6 cm/sec; CNS- compounds have a Pe<2.0×10^−6 cm/sec)”. Besides, in series [4] (pH 7.4), the “Pe × 10^−6 (effective BBB permeability)” value is reported as 3.14 ×10^−6 cm/sec. Moreover, in series [5], the “In Vivo CNS +/−” value is on record as “+”.

`O=C(O)Cc1ccccc1Nc1c(Cl)cccc1Cl` [Diclofenac, diclofenac]: the solubility at 90 min worked out at 9 µM (≈ 2.67 µg/mL) in the series “physchem” (pH 3, aqueous buffer); 18 µM (≈ 5.33 µg/mL) in “physchem” (pH 5, aqueous buffer); 274 µM (≈ 81.1 µg/mL) in the series “physchem” (pH 7.4, aqueous buffer); 324 µM (≈ 96 µg/mL) in the series “physchem” (pH 9, aqueous buffer). Also, the “Literature (solubility)” value in series [3] (pH 5) was 30 µM; in series [3] (pH 7.4) it was over 350 µM; in series [3] (pH 9), over 350 µM. In series [2], this compound had a Papp at 16 h of about 10 ×10⁻⁶ cm/s.

In “physchem” (pH 7.4, aqueous buffer), `COCCCC/C(=N\OCCN)c1ccc(C(F)(F)F)cc1` [Fluvoxamine, fluvoxamine] came in with a kinetic solubility at 90 min of 207 µM (≈ 65.9 µg/mL).

For the compound `Cc1cc(NC(=O)C2=C(O)c3ccccc3S(=O)(=O)N2C)no1` [Isoxicam, isoxicam], the kinetic solubility at 90 min in “physchem” (pH 7.4, aqueous buffer) is 322 µM (≈ 108 µg/mL). This compound also had a Papp at 16 h in series [2] (pH 7.4) of 0.71 ×10⁻⁶ cm/s. Further, the “AGY Ranking (CNS+/CNS−)” value in series [2] is on record as “− (CNS- compounds have a Pe<2.0×10^−6 cm/sec)”.

On to `CCn1cc(C(=O)O)c(=O)c2cc(F)c(N3CCNC(C)C3)c(F)c21` (centres unmarked) [Lomafloxacin, lomafloxacin], for which the “pH 7.4 Solubility” value in “physchem” (90 min, pH 7.4) is on record as 288 μM. In series [2], the “Pe × 10^−6 (effective BBB permeability)” value is given as 0.17 ×10^−6 cm/sec and the “AGY Ranking (CNS+/CNS−)” value is “− (CNS- compounds have a Pe<2.0×10^−6 cm/sec)”.

`CN(C)C(=O)C(CCN1CCC(O)(c2ccc(Cl)cc2)CC1)(c1ccccc1)c1ccccc1` [Loperamide]: the solubility (kinetic) at 90 min in “physchem” (pH 7.4, aqueous buffer) was found to be 165 µM (≈ 78.7 µg/mL). In the series “in vitro”, the Papp was 1.07 ×10⁻⁶ cm/s. For the same compound, the “AGY Ranking (CNS+/CNS−)” value in series [2] is on record as “− (CNS- compounds have a Pe<2.0×10^−6 cm/sec)”.

In the case of `C[C@]12N[C@H](Cc3ccccc31)c1ccccc12` [MK-801, dizocilpine], the kinetic solubility at 90 min in “physchem” (pH 7.4, aqueous buffer) is 212 µM (≈ 46.9 µg/mL).

With `CC(C)(C)[N+]([O-])=Cc1ccccc1` [N-tert-Butyl-a-phenylnitrone, N-tert-Butyl-alpha-phenylnitrone], the “AGY Ranking (CNS+/CNS−)” value in series [2] was “+ (CNS+ compounds have a Pe>2.0×10^−6 cm/sec)”.

With `Nc1ccc(/N=N/c2ccccc2)c(N)n1` [Phenazopyridine, phenazopyridine], the solubility at 90 min in the series “physchem” (pH 3, aqueous buffer) was 332 µM (≈ 70.8 µg/mL); in the series “physchem” (pH 5, aqueous buffer), 89 µM (≈ 19 µg/mL); in “physchem” (pH 7.4, aqueous buffer) it was 86 µM (≈ 18.3 µg/mL); in the series “physchem” (pH 9, aqueous buffer) it was 71 µM (≈ 15.1 µg/mL). Further, the “Literature (solubility)” value was over 350 µM in series [3] (pH 3), 150 µM in series [3] (pH 5), 58 µM in series [3] (pH 7.4) and 49 µM in series [3] (pH 9).

For the compound `CN1C(C(=O)Nc2ccccn2)=C(O)c2ccccc2S1(=O)=O` [Piroxicam, piroxicam], the solubility at 90 min in the series “physchem” (pH 3, aqueous buffer) came to 55 µM (≈ 18.2 µg/mL); in “physchem” (pH 5, aqueous buffer), 66 µM (≈ 21.9 µg/mL); in “physchem” (pH 7.4, aqueous buffer), 257 µM (≈ 85.2 µg/mL); in “physchem” (pH 9, aqueous buffer), 336 µM (≈ 111 µg/mL). Further, the “Literature (solubility)” value was 32 µM in series [3] (pH 3), 32 µM in series [3] (pH 5), 300 µM in series [3] (pH 7.4) and over 350 µM in series [3] (pH 9).

For the compound `CC(C)NCC(O)COc1cccc2ccccc12` (centres unmarked) [Propranolol, s-propranolol], the solubility at 90 min in “physchem” (pH 3, aqueous buffer) was over 350 µM; in the series “physchem” (pH 5, aqueous buffer) it was over 350 µM; in “physchem” (pH 7.4, aqueous buffer), over 350 µM; in “physchem” (pH 9, aqueous buffer), over 350 µM. Moreover, the “Literature (solubility)” value in series [3] (pH 7.4) was 240 µM.

In turn, `c1ccc2nc(N3CCNCC3)ccc2c1` [Quipazine] registered a kinetic solubility at 90 min in “physchem” (pH 7.4, aqueous buffer) of 239 µM (≈ 51 µg/mL). For the same compound, the Papp at 16 h in series [2] (pH 7.4) amounted to 14.9 ×10⁻⁶ cm/s. Moreover, in series [2], the “AGY Ranking (CNS+/CNS−)” value is given as “+ (CNS+ compounds have a Pe>2.0×10^−6 cm/sec)”.

Consider `CNC(=C[N+](=O)[O-])NCCSCc1ccc(CN(C)C)o1` [Ranitidine HCl, ranitidine], for which, in “physchem” (pH 7.4, aqueous buffer), the kinetic solubility at 90 min worked out at 174 µM. For the same compound, the “[Brain]/[Blood]” value in series [1] is on record as 0.06. Moreover, the Papp at 16 h in series [2] (pH 7.4) turned out to be 0.02 ×10⁻⁶ cm/s. Also, the “AGY Ranking (CNS+/CNS−)” value in series [2] is “− (CNS- compounds have a Pe<2.0×10^−6 cm/sec)”.

For the compound `Cl.NC1CCN(c2cccc(Cl)n2)CC1` [SR-57227A], in “physchem” (pH 7.4, Table 2 test set, n=7), the “pH 7.4 Solubility” value was found to be 294 μM. Moreover, in series [2], the “Pe × 10^−6 (effective BBB permeability)” value is 6.12 ×10^−6 cm/sec and the “AGY Ranking (CNS+/CNS−)” value is “+ (CNS+ compounds have a Pe>2.0×10^−6 cm/sec)”.

Turning to `Cn1c(=O)c2[nH]cnc2n(C)c1=O` [Theophylline, theophylline], the solubility at 90 min in the series “physchem” (pH 3, aqueous buffer) was 330 µM (≈ 59.5 µg/mL); in the series “physchem” (pH 5, aqueous buffer), 337 µM (≈ 60.7 µg/mL); in the series “physchem” (pH 7.4, aqueous buffer), 290 µM (≈ 52.2 µg/mL); in “physchem” (pH 9, aqueous buffer) it was over 350 µM. For the same compound, the “Literature (solubility)” value in series [3] (pH 7.4) is over 350 µM.

In “physchem” (pH 7.4, aqueous buffer), `c1cc(CN2CCCCC2)cc(OCCCNc2nc3ccccc3s2)c1` [Zolantidine] yielded a kinetic solubility at 90 min of 108 µM (≈ 41.2 µg/mL). The “[Brain]/[Blood]” value in series [1] is reported as 1.38. The same compound gave a Papp at 16 h in series [2] (pH 7.4) of 12.5 ×10⁻⁶ cm/s. In series [2], the “AGY Ranking (CNS+/CNS−)” value is on record as “+ (CNS+ compounds have a Pe>2.0×10^−6 cm/sec)”.
